Laboratory results taken from PubChem BioAssay (NCI).
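Interpolation was linear, between the two tested concentrations surrounding the appropriate level; five concentrations were tested over 48 hours in 96-well plates. Here, GI50 denotes the concentration required for 50% inhibition of growth. Definition used: TGI = concentration required for complete inhibition of growth.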

How the values were obtained:
Assay in all cases: inhibition of tumour cell growth, NCI panel, 48 h
786-0 renal = system: 786-0 renal
A498 renal = system: A498 renal
A549 NSCLC = system: A549 NSCLC
ACHN renal = system: ACHN renal
BT-549 breast = system: BT-549 breast
CAKI-1 renal = system: CAKI-1 renal
CCRF-CEM leukemia = system: CCRF-CEM leukemia
COLO 205 colon = system: COLO 205 colon
DU-145 prostate = system: DU-145 prostate
EKVX NSCLC = system: EKVX NSCLC
HCC-2998 colon = system: HCC-2998 colon
HCT-116 colon = system: HCT-116 colon
HCT-15 colon = system: HCT-15 colon
HL-60(TB) leukemia = system: HL-60(TB) leukemia
HOP-62 NSCLC = system: HOP-62 NSCLC
HOP-92 NSCLC = system: HOP-92 NSCLC
HS 578T breast = system: HS 578T breast
HT29 colon = system: HT29 colon
IGROV1 ovarian = system: IGROV1 ovarian
K-562 leukemia = system: K-562 leukemia
KM12 colon = system: KM12 colon
LOX IMVI melanoma = system: LOX IMVI melanoma
M14 melanoma = system: M14 melanoma
MALME-3M melanoma = system: MALME-3M melanoma
MCF7 breast = system: MCF7 breast
MDA-MB-231 breast = system: MDA-MB-231 breast
MDA-MB-435 = system: MDA-MB-435
MOLT-4 leukemia = system: MOLT-4 leukemia
NCI-H226 lung = system: NCI-H226 lung
NCI-H23 lung = system: NCI-H23 lung
NCI-H460 lung = system: NCI-H460 lung
NCI-H522 lung = system: NCI-H522 lung
NCI/ADR-RES ovarian = system: NCI/ADR-RES ovarian
OVCAR-4 ovarian = system: OVCAR-4 ovarian
OVCAR-5 ovarian = system: OVCAR-5 ovarian
OVCAR-8 ovarian = system: OVCAR-8 ovarian
PC-3 prostate = system: PC-3 prostate
RPMI-8226 leukemia = system: RPMI-8226 leukemia
RXF 393 renal = system: RXF 393 renal
SF-268 CNS = system: SF-268 CNS
SF-295 CNS = system: SF-295 CNS
SF-539 CNS = system: SF-539 CNS
SK-MEL-2 melanoma = system: SK-MEL-2 melanoma
SK-MEL-28 melanoma = system: SK-MEL-28 melanoma
SK-MEL-5 melanoma = system: SK-MEL-5 melanoma
SK-OV-3 ovarian = system: SK-OV-3 ovarian
SN12C renal = system: SN12C renal
SNB-19 CNS = system: SNB-19 CNS
SW-620 colon = system: SW-620 colon
T-47D breast = system: T-47D breast
TK-10 renal = system: TK-10 renal
U251 CNS = system: U251 CNS
UACC-257 melanoma = system: UACC-257 melanoma
UACC-62 melanoma = system: UACC-62 melanoma
UO-31 renal = system: UO-31 renal

With `O=C(CCCCCCNC(=O)c1csc(Br)n1)NO` the GI50 (786-0 renal) was 2440 nM, the TGI (786-0 renal) was > 33300 nM and the GI50 (A498 renal) was 676 nM. The TGI (A498 renal) was 2080 nM, the GI50 (A549 NSCLC) was 1350 nM and the TGI (A549 NSCLC) was 14400 nM. The GI50 (ACHN renal) was 1180 nM, the TGI (ACHN renal) was 7530 nM and the GI50 (BT-549 breast) was 3050 nM. The TGI (BT-549 breast) was > 33300 nM, the GI50 (CAKI-1 renal) was 1120 nM and the TGI (CAKI-1 renal) was 8220 nM. The GI50 (CCRF-CEM leukemia) was 1060 nM, the TGI (CCRF-CEM leukemia) was > 33300 nM and the GI50 (COLO 205 colon) was 700 nM. For the same molecule, the TGI (COLO 205 colon) was 1780 nM, the GI50 (DU-145 prostate) was 1210 nM and the TGI (DU-145 prostate) was > 33300 nM. For the same molecule, the GI50 (EKVX NSCLC) was 1990 nM, the TGI (EKVX NSCLC) was > 33300 nM and the GI50 (HCC-2998 colon) was 3400 nM. It also gave a TGI (HCC-2998 colon) of 13100 nM, a GI50 (HCT-116 colon) of 892 nM and a TGI (HCT-116 colon) of 3780 nM. The GI50 (HCT-15 colon) was 2160 nM, the TGI (HCT-15 colon) was > 33300 nM and the GI50 (HL-60(TB) leukemia) was 1270 nM. The TGI (HL-60(TB) leukemia) was > 33300 nM, the GI50 (HOP-62 NSCLC) was 1410 nM and the TGI (HOP-62 NSCLC) was > 33300 nM. It also gave a GI50 (HOP-92 NSCLC) of 706 nM, a TGI (HOP-92 NSCLC) of 2240 nM and a GI50 (HS 578T breast) of 917 nM. For the same molecule, the TGI (HS 578T breast) was 22100 nM, the GI50 (HT29 colon) was 985 nM and the TGI (HT29 colon) was 5560 nM. For the same molecule, the GI50 (IGROV1 ovarian) was 1690 nM, the TGI (IGROV1 ovarian) was > 33300 nM and the GI50 (K-562 leukemia) was 1130 nM. For the same molecule, the TGI (K-562 leukemia) was > 33300 nM, the GI50 (KM12 colon) was 2750 nM and the TGI (KM12 colon) was > 33300 nM. The GI50 (LOX IMVI melanoma) was 47.3 nM, the TGI (LOX IMVI melanoma) was 3790 nM and the GI50 (M14 melanoma) was 1640 nM. For the same molecule, the TGI (M14 melanoma) was > 33300 nM, the GI50 (MALME-3M melanoma) was 787 nM and the TGI (MALME-3M melanoma) was > 33300 nM. For the same molecule, the GI50 (MCF7 breast) was 1410 nM, the TGI (MCF7 breast) was > 33300 nM and the GI50 (MDA-MB-231 breast) was 2010 nM. The TGI (MDA-MB-231 breast) was > 33300 nM, the GI50 (MDA-MB-435) was 1050 nM and the TGI (MDA-MB-435) was 6300 nM. The GI50 (MOLT-4 leukemia) was 1020 nM, the TGI (MOLT-4 leukemia) was > 33300 nM and the GI50 (NCI-H226 lung) was 5170 nM. The TGI (NCI-H226 lung) was > 33300 nM, the GI50 (NCI-H23 lung) was 1900 nM and the TGI (NCI-H23 lung) was > 33300 nM. For the same molecule, the GI50 (NCI-H460 lung) was 1250 nM, the TGI (NCI-H460 lung) was > 33300 nM and the GI50 (NCI-H522 lung) was 844 nM. For the same molecule, the TGI (NCI-H522 lung) was 5090 nM, the GI50 (NCI/ADR-RES ovarian) was 694 nM and the TGI (NCI/ADR-RES ovarian) was 2500 nM. For the same molecule, the GI50 (OVCAR-4 ovarian) was 3650 nM, the TGI (OVCAR-4 ovarian) was > 33300 nM and the GI50 (OVCAR-5 ovarian) was 1160 nM. For the same molecule, the TGI (OVCAR-5 ovarian) was > 33300 nM, the GI50 (OVCAR-8 ovarian) was 961 nM and the TGI (OVCAR-8 ovarian) was 9580 nM. For the same molecule, the GI50 (PC-3 prostate) was 2430 nM, the TGI (PC-3 prostate) was > 33300 nM and the GI50 (RPMI-8226 leukemia) was 951 nM. It also gave a TGI (RPMI-8226 leukemia) of 13400 nM, a GI50 (RXF 393 renal) of 929 nM and a TGI (RXF 393 renal) of 3110 nM. The GI50 (SF-268 CNS) was 2430 nM, the TGI (SF-268 CNS) was > 33300 nM and the GI50 (SF-295 CNS) was 1660 nM. For the same molecule, the TGI (SF-295 CNS) was 9370 nM, the GI50 (SF-539 CNS) was 1620 nM and the TGI (SF-539 CNS) was > 33300 nM. It also gave a GI50 (SK-MEL-2 melanoma) of 1180 nM, a TGI (SK-MEL-2 melanoma) of 6730 nM and a GI50 (SK-MEL-28 melanoma) of 1290 nM. For the same molecule, the TGI (SK-MEL-28 melanoma) was > 33300 nM, the GI50 (SK-MEL-5 melanoma) was 1240 nM and the TGI (SK-MEL-5 melanoma) was 4900 nM. The GI50 (SK-OV-3 ovarian) was 1040 nM, the TGI (SK-OV-3 ovarian) was 5430 nM and the GI50 (SN12C renal) was 2950 nM. The TGI (SN12C renal) was > 33300 nM, the GI50 (SNB-19 CNS) was 3200 nM and the TGI (SNB-19 CNS) was > 33300 nM. The GI50 (SW-620 colon) was 637 nM, the TGI (SW-620 colon) was 1580 nM and the GI50 (T-47D breast) was 648 nM. The TGI (T-47D breast) was 1830 nM, the GI50 (TK-10 renal) was 619 nM and the TGI (TK-10 renal) was 2550 nM. For the same molecule, the GI50 (U251 CNS) was 1530 nM, the TGI (U251 CNS) was 7230 nM and the GI50 (UACC-257 melanoma) was 853 nM. For the same molecule, the TGI (UACC-257 melanoma) was 3330 nM, the GI50 (UACC-62 melanoma) was 699 nM and the TGI (UACC-62 melanoma) was 2500 nM. For the same molecule, the GI50 (UO-31 renal) was 1120 nM and the TGI (UO-31 renal) was > 33300 nM.
